Legend:
Assay type in all cases: cell-based
Bcl-xL = biological target: T1, Bcl-xL (Homo sapiens, UniProt Q07817); assay: HCT116 Bcl-xL degradation, capillary-based immunoassay (WES); conditions: HCT116, 24 h, 9-point serial dilution
T1 construct: Measured levels of Bcl-xL protein of HCT116 cells treated with the tested compounds; host or cells: HCT116
Procedure, shortened: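 HCT116 cells treated 24 h with compound at 10/100 nM and/or 9-point dilution (quadruplicates), then lysed. Bcl-xL measured by capillary WES immunoassay, normalized to cofilin and expressed as % of untreated cells. DC50 from four-parameter curve fit.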

HiBiT-tagged BCL-xL = biological target: T2, HiBiT-tagged BCL-xL (Homo sapiens, UniProt Q07817); assay: NCI-H1650 BCL-xL protein levels, Nano-Glo HiBiT Lytic Detection; conditions: NCI-H1650 expressing HiBiT-tagged BCL-xL, overnight incubation, read-out: Bcl-xl HIBIT NCIH1650 DC50
T2 construct: expressed in transfected cells; host or cells: NCI-H1650 (ATCC No. CRL-5883), engineered HiBiT cell line
Description: (§1) The ability of the BCL-xL degrader low molecular weight compounds to degrade BCL-xL protein was assessed using the Promega Nano-Glo® HiBiT Lytic Detection System. The NCI-H1650 (ATCC No. CRL-5883) was engineered to express HiBiT-tagged BCL-xL. The NCI-H1650 HiBiT cell line was cultured in media that is optimal for their growth at 5% CO2, 37° C. in a tissue culture incubator. Prior to seeding for the protein level assay, the cells were split at least 2 days before the assay to ensure optimal growth density. On the day of seeding, cells were lifted off tissue culture flasks using 0.25% trypsin. Cell viability and cell density were determined using a cell counter (Vi-Cell XR Cell Viability Analyzer, Beckman Coulter). Cells with higher than 85% viability were seeded in white clear bottom 384-well plates (Greiner cat #781098) at a density of 5000 cells per well in 30 μL of standard growth media. Plates were incubated at 37° C. overnight in a tissue culture incubator.
(§2) The BCL-xL degrader low molecular weight compounds were prepared to desired concentrations. A series of 10 dilutions were made for each prepared compound. The prepared compounds were then added to the cells resulting in final concentrations of 0.508 nM-10 μM. An acoustic transfer device (Echo555, Beckman Coulter) was used to add the compounds to the cells. Each treatment was tested in triplicate assay plates. Plates were incubated at 37° C. overnight in a tissue culture incubator.
BCL-xL degradation was assessed through the addition of 30 μL of Nano-Glo® HiBiT Lytic Reagent (Promega, cat #N3040), a reagent which lyses cells and contains a furimazine substrate and the large subunit (LgBiT) used in NanoLuc® Binary Technology. The LgBiT subunit having high affinity to a HiBiT-tagged protein will bind HiBiT, if present, resulting in complex formation of a luminescent NanoBiT® enzyme. This reaction will emit a luminescent signal proportional to the amount of HiBiT-tagged BCL-xL present in the cell lysate. Plates were incubated at room temperature for 20 minutes to stabilize luminescent signals prior to reading using a luminescence reader (PHERAstar FSX Microplate Reader, BMG Labtech).
To evaluate the effect of the drug treatments, luminescent counts from wells containing untreated cells (100% HiBiT-tagged BCL-xL) were used to normalize treated samples. The concentrations of treatment required to inhibit 50% were calculated using a four parameter logistic regression equation.

[1] = test system: EBC-1 lung cancer cell line; assay: EBC-1 cell proliferation, CellTiter-Glo assay; conditions: Homo sapiens, 120 h; Ebc-1 cell viability, CTG assay, 5 days of treatment; read-out: CTG 5 day Ebc1 GI50
Description: as §1, with “to inhibit cell proliferation and survival” for “to degrade BCL-xL protein”, “Promega CellTiter-Glo® proliferation assay on the EBC-1 lung cancer” for “Promega Nano-Glo® HiBiT Lytic Detection System. The NCI-H1650 (ATCC No. CRL-5883) was engineered to express HiBiT-tagged BCL-xL. The NCI-H1650 HiBiT”, “line (RCB1965, obtained from RIKEN.) The cells were” for “line was”, “the proliferation” for “the protein level”, “of 1000” for “of 5000”, “in 50” for “in 30”
as §2, with “overnight or for 5 days” for “overnight”, “incubator. The ability of the compounds to inhibit cell proliferation and survival was assessed using the Promega CellTiter-Glo® proliferation assay. Plates were incubated at room temperature for 20 minutes to stabilize luminescent signals prior to reading using a multimode plate reader (PHERAstar FSX Microplate Reader, BMG Labtech).” for “incubator.”
To evaluate the effect of the compound treatments, luminescent counts of untreated cells were taken the day after seeding (Day 0 readings), and after 5 days of treatment (Day 5 readings). The Day 5 readings of the untreated cells were compared to the Day 0 readings. Assays with at least one cell doubling during the incubation period were considered valid. To evaluate the effect of the drug treatments, luminescent counts from wells containing untreated cells (100% viability) were used to normalize treated samples. The concentrations of treatment required to inhibit 50% of cell growth or survival ([…]) were calculated using a four parameter logistic regression equation.

MOLT-4 cells = assay: MOLT-4 cell viability, CTG assay; conditions: Homo sapiens, MOLT-4, 48 h
Procedure, shortened: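 Cells grown in RPMI 1640 with 10% FBS at 37° C, 5% CO2, then exposed to compounds for 48 h (11-point 5-fold dilution, triplicates). ATP measured by CellTiter-Glo luminescence; IC50 from four-parameter fit versus control, mean of ≥2 independent experiments.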

T2 sequence (Q07817 whole entry): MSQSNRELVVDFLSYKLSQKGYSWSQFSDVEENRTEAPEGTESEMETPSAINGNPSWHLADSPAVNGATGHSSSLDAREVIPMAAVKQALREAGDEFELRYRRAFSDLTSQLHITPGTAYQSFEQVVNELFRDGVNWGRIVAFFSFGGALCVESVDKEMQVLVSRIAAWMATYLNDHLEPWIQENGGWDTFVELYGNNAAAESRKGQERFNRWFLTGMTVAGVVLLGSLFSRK
T1 sequence (Q07817 whole entry): as above

Row | Structure (SMILES) | DC50 (Bcl-xL) | DC50 (HiBiT-tagged BCL-xL) | GI50 [1] | IC50 (MOLT-4 cells)
1 | Cc1ncsc1-c1ccc([C@H](C)NC(=O)C2C[C@@H](O)CN2C(=O)C(NC(=O)COCCOCCOCCOCCN(C)CCOC23CC4(C)CC(C)(CC(Cn5ncc(-c6ccc(N7CCCc8c7nnc(Nc7nc9ccccc9s7)c8C)nc6C(=O)O)c5C)(C4)C2)C3)C(C)(C)C)cc1 (stereo in doubt) [Example 87, 6-[3-(1,3-benzothiazol-2-ylamino)-4-methyl-6,7-dihydro-5H-pyrido[2,3-c]pyridazin-8-yl]-3-[1-[[3-[2-[2-[2-[2-[2-[2-[[(1S)-1-[(2S,4R)-4-hydroxy-2-[[(1S)-1-[4-(4-methylthiazol-5-yl)phenyl]ethyl]carbamoyl]pyrrolidine-1-carbonyl]-2,2-dimethyl-propyl]amino]-2-oxo-ethoxy]ethoxy]ethoxy]ethoxy]ethyl-methyl-amino]ethoxy]-5,7-dimethyl-1-adamantyl]methyl]-5-methyl-pyrazol-4-yl]pyridine-2-carboxylic acid] | > 316 nM | > 1670 nM | 216 nM | 34.7 nM
2 | Cc1ncsc1-c1ccc(CNC(=O)[C@@H]2C[C@@H](O)CN2C(=O)[C@@H](NC(=O)C2(F)CC2)C(C)(C)C)c(OCCCCCCCCCN(C)CCOC23CC4(C)CC(C)(CC(Cn5ncc(-c6ccc(N7CCCc8c7nnc(Nc7nc9ccccc9s7)c8C)nc6C(=O)O)c5C)(C4)C2)C3)c1 [Example 72, 6-[3-(1,3-benzothiazol-2-ylamino)-4-methyl-6,7-dihydro-5H-pyrido[2,3-c]pyridazin-8-yl]-3-[1-[[3-[2-[9-[2-[[[(2S,4R)-1-[(2S)-2-[(1-fluorocyclopropanecarbonyl)amino]-3,3-dimethyl-butanoyl]-4-hydroxy-pyrrolidine-2-carbonyl]amino]methyl]-5-(4-methylthiazol-5-yl)phenoxy]nonyl-methyl-amino]ethoxy]-5,7-dimethyl-1-adamantyl]methyl]-5-methyl-pyrazol-4-yl]pyridine-2-carboxylic acid] | 13.3 nM | > 1670 nM | 179 nM | 16.7 nM
3 | Cc1ncsc1-c1ccc(CNC(=O)[C@@H]2C[C@@H](O)CN2C(=O)[C@@H](NC(=O)C2(F)CC2)C(C)(C)C)c(OCCCCCCCCCCN(C)CCOC23CC4(C)CC(C)(CC(Cn5ncc(-c6ccc(N7CCCc8c7nnc(Nc7nc9ccccc9s7)c8C)nc6C(=O)O)c5C)(C4)C2)C3)c1 [Example 73, 6-[3-(1,3-benzothiazol-2-ylamino)-4-methyl-6,7-dihydro-5H-pyrido[2,3-c]pyridazin-8-yl]-3-[1-[[3-[2-[10-[2-[[[(2S,4R)-1-[(2S)-2-[(1-fluorocyclopropanecarbonyl)amino]-3,3-dimethyl-butanoyl]-4-hydroxy-pyrrolidine-2-carbonyl]amino]methyl]-5-(4-methylthiazol-5-yl)phenoxy]decyl-methyl-amino]ethoxy]-5,7-dimethyl-1-adamantyl]methyl]-5-methyl-pyrazol-4-yl]pyridine-2-carboxylic acid] | 7.69 nM | 13 nM | 186 nM | 24 nM
4 | Cc1ncsc1-c1ccc([C@H](C)NC(=O)[C@@H]2C[C@@H](O)CN2C(=O)[C@@H](NC(=O)C2CCN(C(=O)CCCCCCCCCCCN(C)CCOC34CC5(C)CC(C)(CC(Cn6ncc(-c7ccc(N8CCCc9c8nnc(Nc8nc%10ccccc%10s8)c9C)nc7C(=O)O)c6C)(C5)C3)C4)CC2)C(C)(C)C)cc1 [Example 86, 6-[3-(1,3-benzothiazol-2-ylamino)-4-methyl-6,7-dihydro-5H-pyrido[2,3-c]pyridazin-8-yl]-3-[1-[[3-[2-[[12-[4-[[(1S)-1-[(2S,4R)-4-hydroxy-2-[[(1S)-1-[4-(4-methylthiazol-5-yl)phenyl]ethyl]carbamoyl]pyrrolidine-1-carbonyl]-2,2-dimethyl-propyl]carbamoyl]-1-piperidyl]-12-oxo-dodecyl]-methyl-amino]ethoxy]-5,7-dimethyl-1-adamantyl]methyl]-5-methyl-pyrazol-4-yl]pyridine-2-carboxylic acid] | – | > 1670 nM | 18 nM | 13.7 nM
5 | Cc1cc(N(CCCCN(C)C(=O)CCCCCCCCCCC(=O)N[C@H](C(=O)N2C[C@H](O)C[C@H]2C(=O)N[C@@H](C)c2ccc(-c3scnc3C)cc2)C(C)(C)C)c2ccc(-c3cnn(CC45CC6(C)CC(C)(C4)CC(OCCN(C)C)(C6)C5)c3C)c(C(=O)N(C)C)n2)nnc1Nc1nc2ccccc2s1 [Example 128, N′-[4-[[6-(1,3-benzothiazol-2-ylamino)-5-methyl-pyridazin-3-yl]-[5-[1-[[3-[2-(dimethylamino)ethoxy]-5,7-dimethyl-1-adamantyl]methyl]-5-methyl-pyrazol-4-yl]-6-(dimethylcarbamoyl)-2-pyridyl]amino]butyl]-N-[(1S)-1-[(2S,4R)-4-hydroxy-2-[[(1S)-1-[4-(4-methylthiazol-5-yl)phenyl]ethyl]carbamoyl]pyrrolidine-1-carbonyl]-2,2-dimethyl-propyl]-N′-methyl-dodecanediamide] | – | 18 nM | 869 nM | 67 nM
6 | Cc1ncsc1-c1ccc([C@H](C)NC(=O)[C@@H]2C[C@@H](O)CN2C(=O)[C@@H](NC(=O)CCCCCCCCCCCCCN(C)CCOC23CC4(C)CC(C)(CC(Cn5ncc(-c6ccc(N7CCCc8c7nnc(Nc7nc9ccccc9s7)c8C)nc6CO)c5C)(C4)C2)C3)C(C)(C)C)cc1 [Example 155, (2S,4R)-1-[(2S)-2-[14-[2-[[3-[[4-[6-[3-(1,3-benzothiazol-2-ylamino)-4-methyl-6,7-dihydro-5H-pyrido[2,3-c]pyridazin-8-yl]-2-(hydroxymethyl)-3-pyridyl]-5-methyl-pyrazol-1-yl]methyl]-5,7-dimethyl-1-adamantyl]oxy]ethyl-methyl-amino]tetradecanoylamino]-3,3-dimethyl-butanoyl]-4-hydroxy-N-[(1S)-1-[4-(4-methylthiazol-5-yl)phenyl]ethyl]pyrrolidine-2-carboxamide] | – | > 1670 nM | 431 nM | 22.1 nM

— patent US20240376094A2, “SELECTIVE BCL-XL PROTAC COMPOUNDS AND METHODS OF USE” (Les Laboratoires Servier, priority 2021, published 2024)
